Test results published in PubChem BioAssay (NCI).
“And” between values parts separate entries of the source, which are not always exact repeats. Identical values can stand only once.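 All cell lines were grown in 96-well plates and treated with compound for 48 hours. GI50 is the concentration that inhibits growth by half. TGI is the concentration that stops growth completely.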

How the values were obtained:
Assay in all cases: NCI tumour cell line growth inhibition, 48 h
[1] = tested on: DLD-1 colon
[2] = tested on: LXFL 529 NSCLC
[3] = tested on: SF-295 CNS
[4] = tested on: NCI-H522 lung
[5] = tested on: A549 NSCLC
[6] = tested on: HCT-116 colon
[7] = tested on: OVCAR-4 ovarian
[8] = tested on: M14 melanoma
[9] = tested on: ACHN renal
[10] = tested on: HL-60(TB) leukemia

Row | Structure (SMILES) | TGI [1] | TGI [2] | TGI [3] | TGI [4] | TGI [5] | TGI [6] | TGI [7] | TGI [8] | TGI [9] | TGI [10] | GI50 [4] | GI50 [5] | GI50 [9] | GI50 [6] | GI50 [7] | GI50 [10] | GI50 [1] | GI50 [2] | GI50 [8]
1 | CC(=O)OC1CCn2nnc(CO)c21 (stereo unspecified) | > 100 µM | > 100 µM | > 100 µM | > 100 µM | > 100 µM | > 100 µM | > 100 µM | – | – | – | – | – | – | – | – | – | – | – | –
2 | CN1CC(=O)N(C)c2ncn(Cc3ccccc3)c2C1=O | > 100 µM | > 100 µM | > 100 µM | – | > 100 µM | – | > 100 µM | > 100 µM | > 100 µM | > 100 µM | – | – | – | – | – | – | – | – | –
3 | COc1ccc(C(=O)C(C(=O)CC(=O)Nc2cccc(C(F)(F)F)c2)c2ccc(OC)cc2)cc1 (stereo unspecified) | > 100 µM | > 100 µM | > 100 µM | > 100 µM | > 100 µM | > 100 µM | > 100 µM | > 100 µM | > 100 µM | > 100 µM | – | – | – | – | – | – | – | – | –
4 | C[C@]12CC[C@H](OC3OC(CO)C(O)C(O)C3O)C[C@H]1CC[C@@H]1[C@@H]2CC[C@]2(C)[C@@H](C3=CCOC3=O)CC[C@]12O (stereo partly specified) | > 50 µM | – | 24.6 µM and > 100 µM and 70.7 µM | 50 µM and > 100 µM | 50 µM and > 100 µM | 50 µM and > 100 µM | 50 µM and > 100 µM | > 100 µM | > 100 µM | 28 µM and > 100 µM | 74.9 µM and 10.1 µM | > 100 µM and 84.5 µM | 0.183 µM | > 100 µM and 51.3 µM | > 100 µM and 20.7 µM | > 100 µM | – | – | –
5 | COc1cc(OC)c(SSCCCCS(=O)O)c(OC)c1 | 41.1 µM | 25.2 µM | 26.8 µM | 21.1 µM | 40.3 µM | 29.9 µM | > 100 µM | 27.5 µM | 31.8 µM | 24.8 µM | – | – | – | – | – | – | – | – | –
6 | CC(=O)c1cccc(C)c1C(=O)O | > 100 µM | > 100 µM | > 100 µM | > 100 µM | > 100 µM | > 100 µM | > 100 µM | > 100 µM | > 100 µM | > 100 µM | – | – | – | – | – | – | – | – | –
7 | COc1ccccc1C(O)(c1ccccc1)C(O)(c1ccccc1)c1ccccc1OC (stereo unspecified) | > 100 µM | > 100 µM | > 100 µM | > 100 µM | > 100 µM | > 100 µM | > 100 µM | > 100 µM | > 100 µM | > 100 µM | – | – | – | – | – | – | – | – | –
8 | CCN(CC)CCCNC(=O)C1COc2cc(-c3cc(=O)c4ccccc4o3)ccc2O1 (stereo unspecified) | > 100 µM | > 100 µM | > 100 µM | > 100 µM | > 100 µM | > 100 µM | > 100 µM | 40 µM | > 100 µM | > 100 µM | – | – | – | – | – | – | – | – | –
9 | CC1=C[C@]2(O)C(=O)[C@H](C)C[C@H]3[C@@H](CC[C@@](C)(O)/C=C\2C1=O)C3(C)C | 34.9 µM | 37.9 µM | 75.8 µM | 26.7 µM | > 100 µM | 30.9 µM | 71.6 µM | 39.9 µM | 54.6 µM | > 100 µM | – | – | – | – | – | – | – | – | –
10 | COc1ccc(/C(=N\NC(=O)C(=O)NN)C(c2ccc(OC)cc2)C2(O)C(=O)Nc3ccccc32)cc1 (stereo unspecified) | > 100 µM | > 100 µM | – | > 100 µM | > 100 µM | > 100 µM | – | > 100 µM | > 100 µM | – | – | – | – | – | – | – | – | – | –
11 | CC(=O)[CH-]C(=O)c1ccccc1.CC(=O)[CH-]C(=O)c1ccccc1.CC(C)CCCC(C)[C@H]1CCC2[C@@H]3CC=C4C[C@@H]([O-])CC[C@]4(C)C3CC[C@@]21C.CC(C)CCCC(C)[C@H]1CCC2[C@@H]3CC=C4C[C@@H]([O-])CC[C@]4(C)C3CC[C@@]21C.[Ti+4] (stereo partly specified) | > 100 µM | > 100 µM | – | > 100 µM | – | > 100 µM | > 100 µM | > 100 µM | > 100 µM | – | > 100 µM | – | > 100 µM | > 100 µM | > 100 µM | – | > 100 µM | > 100 µM | > 100 µM
